Experimental data reported in US20230017045A1, “PYRIDINE AND PYRIMIDINE CARBOXYLATE HERBICIDES AND METHODS OF USE THEREOF” (Dow AgroSciences LLC, priority 2017, published 2023).

These compounds were tested on test plant species (assay: Post-emergent herbicidal activity test (greenhouse, foliar spray, visual growth reduction)). Conditions: post-emergence, 336 h, ALOMY: blackgrass (Alopecurus myosuroides), 140 g ai/ha, 14 days after application, read-out: Visual Growth Reduction (%) 14 Days After Application, ALOMY.
Type: in vivo
Summary of the method: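 Greenhouse plants at first–second true leaf stage sprayed overhead at 187 L/ha with compound in acetone/water/isopropanol/DMSO/crop oil/X-77 carrier; controls received solvent blank. Injury rated visually after 14 d on a 0–100% scale versus untreated and control plants, converted to growth reduction.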

Row | SMILES | pest or weed control at 140 g/ha [%]
1 | O=C(O)c1nc(-c2ncc(Cl)c(C(F)F)c2Cl)ccc1Cl [F193, 3′,5,5′-Trichloro-4′-(difluoromethyl)-[2,2′-bipyridine]-6-carboxylic acid] | 0 to 29
2 | O=C(O)c1nc(-c2cc3c(cc2Cl)OC(F)(F)O3)ccc1Cl [F126] | 0 to 29

Same assay, conditions: post-emergence, 336 h, AMARE: redroot pigweed (Amaranthus retroflexus), 140 g ai/ha, 14 days after application, read-out: Visual Growth Reduction (%) 14 Days After Application, AMARE

Row | SMILES | pest or weed control at 140 g/ha [%]
3 | O=C(O)c1nc(-c2ncc(Cl)c(C(F)F)c2Cl)ccc1Cl [F193, 3′,5,5′-Trichloro-4′-(difluoromethyl)-[2,2′-bipyridine]-6-carboxylic acid] | 95 to 100
4 | O=C(O)c1nc(-c2cc3c(cc2Cl)OC(F)(F)O3)ccc1Cl [F126] | 95 to 100

Same assay, conditions: post-emergence, 336 h, AVEFA: wild oat (Avena fatua), 140 g ai/ha, 14 days after application, read-out: Visual Growth Reduction (%) 14 Days After Application, AVEFA

Row | SMILES | pest or weed control at 140 g/ha [%]
5 | O=C(O)c1nc(-c2ncc(Cl)c(C(F)F)c2Cl)ccc1Cl [F193, 3′,5,5′-Trichloro-4′-(difluoromethyl)-[2,2′-bipyridine]-6-carboxylic acid] | 30 to 44
6 | O=C(O)c1nc(-c2cc3c(cc2Cl)OC(F)(F)O3)ccc1Cl [F126] | 0 to 29

Same assay, conditions: post-emergence, 336 h, CHEAL: lambsquarters (Chenopodium album), 140 g ai/ha, 14 days after application, read-out: Visual Growth Reduction (%) 14 Days After Application, CHEAL

Row | SMILES | pest or weed control at 140 g/ha [%]
7 | O=C(O)c1nc(-c2ncc(Cl)c(C(F)F)c2Cl)ccc1Cl [F193, 3′,5,5′-Trichloro-4′-(difluoromethyl)-[2,2′-bipyridine]-6-carboxylic acid] | 85 to 94
8 | O=C(O)c1nc(-c2cc3c(cc2Cl)OC(F)(F)O3)ccc1Cl [F126] | 85 to 94

Same assay, conditions: post-emergence, 336 h, CIRAR: canada thistle (Cirsium arvense), 140 g ai/ha, 14 days after application, read-out: Visual Growth Reduction (%) 14 Days After Application, CIRAR

Row | SMILES | pest or weed control at 140 g/ha [%]
9 | O=C(O)c1nc(-c2ncc(Cl)c(C(F)F)c2Cl)ccc1Cl [F193, 3′,5,5′-Trichloro-4′-(difluoromethyl)-[2,2′-bipyridine]-6-carboxylic acid] | 0 to 29
10 | O=C(O)c1nc(-c2cc3c(cc2Cl)OC(F)(F)O3)ccc1Cl [F126] | 75 to 84

Same assay, conditions: post-emergence, 336 h, CYPES: yellow nutsedge (Cyperus esculentus), 140 g ai/ha, 14 days after application, read-out: Visual Growth Reduction (%) 14 Days After Application, CYPES

Row | SMILES | pest or weed control at 140 g/ha [%]
11 | O=C(O)c1nc(-c2ncc(Cl)c(C(F)F)c2Cl)ccc1Cl [F193, 3′,5,5′-Trichloro-4′-(difluoromethyl)-[2,2′-bipyridine]-6-carboxylic acid] | 0 to 29
12 | O=C(O)c1nc(-c2cc3c(cc2Cl)OC(F)(F)O3)ccc1Cl [F126] | 0 to 29

Same assay, conditions: post-emergence, 336 h, DIGSA: crabgrass (Digitaria sanguinalis), 140 g ai/ha, 14 days after application, read-out: Visual Growth Reduction (%) 14 Days After Application, DIGSA

Row | SMILES | pest or weed control at 140 g/ha [%]
13 | O=C(O)c1nc(-c2ncc(Cl)c(C(F)F)c2Cl)ccc1Cl [F193, 3′,5,5′-Trichloro-4′-(difluoromethyl)-[2,2′-bipyridine]-6-carboxylic acid] | 85 to 94
14 | O=C(O)c1nc(-c2cc3c(cc2Cl)OC(F)(F)O3)ccc1Cl [F126] | 85 to 94

Same assay, conditions: post-emergence, 336 h, ECHCG: barnyardgrass (Echinochloa crus-galli), 140 g ai/ha, 14 days after application, read-out: Visual Growth Reduction (%) 14 Days After Application, ECHCG

Row | SMILES | pest or weed control at 140 g/ha [%]
15 | O=C(O)c1nc(-c2ncc(Cl)c(C(F)F)c2Cl)ccc1Cl [F193, 3′,5,5′-Trichloro-4′-(difluoromethyl)-[2,2′-bipyridine]-6-carboxylic acid] | 85 to 94
16 | O=C(O)c1nc(-c2cc3c(cc2Cl)OC(F)(F)O3)ccc1Cl [F126] | 60 to 74

Same assay, conditions: post-emergence, 336 h, IPOHE: ivy-leaf morning glory (Ipomoea hederacea), 140 g ai/ha, 14 days after application, read-out: Visual Growth Reduction (%) 14 Days After Application, IPOHE

Row | SMILES | pest or weed control at 140 g/ha [%]
17 | O=C(O)c1nc(-c2ncc(Cl)c(C(F)F)c2Cl)ccc1Cl [F193, 3′,5,5′-Trichloro-4′-(difluoromethyl)-[2,2′-bipyridine]-6-carboxylic acid] | 95 to 100
18 | O=C(O)c1nc(-c2cc3c(cc2Cl)OC(F)(F)O3)ccc1Cl [F126] | 95 to 100

Same assay, conditions: post-emergence, 336 h, KCHSC: kochia (Bassia scoparia), 140 g ai/ha, 14 days after application, read-out: Visual Growth Reduction (%) 14 Days After Application, KCHSC

Row | SMILES | pest or weed control at 140 g/ha [%]
19 | O=C(O)c1nc(-c2ncc(Cl)c(C(F)F)c2Cl)ccc1Cl [F193, 3′,5,5′-Trichloro-4′-(difluoromethyl)-[2,2′-bipyridine]-6-carboxylic acid] | 0 to 29
20 | O=C(O)c1nc(-c2cc3c(cc2Cl)OC(F)(F)O3)ccc1Cl [F126] | 60 to 74

Same assay, conditions: post-emergence, 336 h, ORYSA: rice (Oryza sativa), 140 g ai/ha, 14 days after application, read-out: Visual Growth Reduction (%) 14 Days After Application, ORYSA

Row | SMILES | pest or weed control at 140 g/ha [%]
21 | O=C(O)c1nc(-c2ncc(Cl)c(C(F)F)c2Cl)ccc1Cl [F193, 3′,5,5′-Trichloro-4′-(difluoromethyl)-[2,2′-bipyridine]-6-carboxylic acid] | 0 to 29
22 | O=C(O)c1nc(-c2cc3c(cc2Cl)OC(F)(F)O3)ccc1Cl [F126] | 0 to 29

Same assay, conditions: post-emergence, 336 h, SETFA: giant foxtail (Setaria faberi), 140 g ai/ha, 14 days after application, read-out: Visual Growth Reduction (%) 14 Days After Application, SETFA

Row | SMILES | pest or weed control at 140 g/ha [%]
23 | O=C(O)c1nc(-c2ncc(Cl)c(C(F)F)c2Cl)ccc1Cl [F193, 3′,5,5′-Trichloro-4′-(difluoromethyl)-[2,2′-bipyridine]-6-carboxylic acid] | 75 to 84
24 | O=C(O)c1nc(-c2cc3c(cc2Cl)OC(F)(F)O3)ccc1Cl [F126] | 60 to 74

Same assay, conditions: post-emergence, 336 h, SORVU: grain sorghum (Sorghum vulgare), 140 g ai/ha, 14 days after application, read-out: Visual Growth Reduction (%) 14 Days After Application, SORVU

Row | SMILES | pest or weed control at 140 g/ha [%]
25 | O=C(O)c1nc(-c2ncc(Cl)c(C(F)F)c2Cl)ccc1Cl [F193, 3′,5,5′-Trichloro-4′-(difluoromethyl)-[2,2′-bipyridine]-6-carboxylic acid] | 95 to 100
26 | O=C(O)c1nc(-c2cc3c(cc2Cl)OC(F)(F)O3)ccc1Cl [F126] | 75 to 84

Same assay, conditions: post-emergence, 336 h, STEME: common chickweed (Stellaria media), 140 g ai/ha, 14 days after application, read-out: Visual Growth Reduction (%) 14 Days After Application, STEME

Row | SMILES | pest or weed control at 140 g/ha [%]
27 | O=C(O)c1nc(-c2ncc(Cl)c(C(F)F)c2Cl)ccc1Cl [F193, 3′,5,5′-Trichloro-4′-(difluoromethyl)-[2,2′-bipyridine]-6-carboxylic acid] | 0 to 29
28 | O=C(O)c1nc(-c2cc3c(cc2Cl)OC(F)(F)O3)ccc1Cl [F126] | 0 to 29

Same assay, conditions: post-emergence, 336 h, TRZAS: wheat, spring (Triticum aestivum), 140 g ai/ha, 14 days after application, read-out: Visual Growth Reduction (%) 14 Days After Application, TRZAS

Row | SMILES | pest or weed control at 140 g/ha [%]
29 | O=C(O)c1nc(-c2ncc(Cl)c(C(F)F)c2Cl)ccc1Cl [F193, 3′,5,5′-Trichloro-4′-(difluoromethyl)-[2,2′-bipyridine]-6-carboxylic acid] | 0 to 29
30 | O=C(O)c1nc(-c2cc3c(cc2Cl)OC(F)(F)O3)ccc1Cl [F126] | 75 to 84
